Laboratory results taken from PubChem BioAssay AID256 (DTP/NCI, 2004).
“And” between values parts separate entries of the source, which are not always exact repeats. Equal entries are not always repeated. Toxic doses and inconclusive results are not listed.

Test system: CD2F1 mice, L1210 leukemia ip, survival T/C
Experiment: NCI In Vivo Anticancer Drug Screen. Data for tumor model L1210 Leukemia (intraperitoneal) in CD2F1 (CDF1) mice
Conditions: higher = longer survival
Outline: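 Transplantable tumor in mice; compound-treated vs vehicle-treated groups. Read-out = treated/control ratio of the measured endpoint.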

[1] = endpoint: mean survival time, dose: 100.0 mg/kg/injection, schedule: Q04DX003 (ip), vehicle: saline with Tween-80
[2] = endpoint: mean survival time, dose: 200.0 mg/kg/injection, schedule: Q04DX003 (ip), vehicle: saline with Tween-80
[3] = endpoint: mean survival time, dose: 400.0 mg/kg/injection, schedule: Q04DX003 (ip), vehicle: saline with Tween-80
[4] = endpoint: mean survival time, dose: 50.0 mg/kg/injection, schedule: Q01DX009 (ip), vehicle: saline with Tween-80
[5] = endpoint: mean survival time, dose: 100.0 mg/kg/injection, schedule: Q01DX001 (ip), vehicle: saline with Tween-80
[6] = endpoint: mean survival time, dose: 100.0 mg/kg/injection, schedule: Q04DX002 (ip), vehicle: saline with Tween-80
[7] = endpoint: mean survival time, dose: 200.0 mg/kg/injection, schedule: Q01DX001 (ip), vehicle: saline with Tween-80
[8] = endpoint: mean survival time, dose: 200.0 mg/kg/injection, schedule: Q04DX002 (ip), vehicle: saline with Tween-80
[9] = endpoint: mean survival time, dose: 400.0 mg/kg/injection, schedule: Q01DX001 (ip), vehicle: saline with Tween-80
[10] = endpoint: mean survival time, dose: 400.0 mg/kg/injection, schedule: Q04DX002 (ip), vehicle: saline with Tween-80
[11] = endpoint: mean survival time, dose: 100.0 mg/kg/injection, schedule: Q01DX009 (ip), vehicle: saline with Tween-80
[12] = endpoint: mean survival time, dose: 200.0 mg/kg/injection, schedule: Q01DX009 (ip), vehicle: saline with Tween-80

O=C[C@@H](CO)O[C@H](C=O)n1cnc2c(=O)[nH]cnc21
T/C (endpoint: mean survival time, dose: 20.0 mg/kg/injection, schedule: Q01DX009 (ip), vehicle: saline): 111 % of control
T/C (endpoint: mean survival time, dose: 40.0 mg/kg/injection, schedule: Q01DX009 (ip), vehicle: saline): 115 % of control
T/C (endpoint: mean survival time, dose: 50.0 mg/kg/injection, schedule: Q04DX003 (ip), vehicle: saline): 114 % of control
T/C (endpoint: mean survival time, dose: 70.0 mg/kg/injection, schedule: Q01DX001 (ip), vehicle: saline): 110 % of control
T/C (endpoint: mean survival time, dose: 80.0 mg/kg/injection, schedule: Q01DX009 (ip), vehicle: saline): 160 % of control
T/C (endpoint: mean survival time, dose: 100.0 mg/kg/injection, schedule: Q01DX007 (ip), vehicle: saline): 156 % of control
T/C (endpoint: mean survival time, dose: 140.0 mg/kg/injection, schedule: Q01DX001 (ip), vehicle: saline): 124 % of control
T/C (endpoint: mean survival time, dose: 160.0 mg/kg/injection, schedule: Q01DX009 (ip), vehicle: saline): 177 % of control and 182 % of control
T/C (endpoint: mean survival time, dose: 200.0 mg/kg/injection, schedule: Q01DX007 (ip), vehicle: saline): 150 % of control
T/C (endpoint: mean survival time, dose: 200.0 mg/kg/injection, schedule: Q01DX009 (ip), vehicle: saline): 287 % of control
T/C (endpoint: mean survival time, dose: 200.0 mg/kg/injection, schedule: Q03DX003 (ip), vehicle: saline): 162 % of control
T/C (endpoint: mean survival time, dose: 200.0 mg/kg/injection, schedule: Q04DX003 (ip), vehicle: saline): 158 % of control
T/C (endpoint: median survival time, dose: 38.9 mg/kg/injection, schedule: Q01DX005 (ip), vehicle: saline): 122 % of control
T/C (endpoint: median survival time, dose: 39.0 mg/kg/injection, schedule: Q01DX009 (ip), vehicle: clinical formulation): 122 % of control
T/C (endpoint: median survival time, dose: 50.0 mg/kg/injection, schedule: Q01DX005 (ip), vehicle: distilled water + Tween-80): 118 % of control
T/C (endpoint: median survival time, dose: 89.0 mg/kg/injection, schedule: Q01DX009 (ip), vehicle: clinical formulation): 173 % of control
T/C (endpoint: median survival time, dose: 89.0 mg/kg/injection, schedule: Q01DX009 (ip), vehicle: sodium bicarbonate): 171 % of control
T/C (endpoint: median survival time, dose: 133.0 mg/kg/injection, schedule: Q01DX009 (ip), vehicle: clinical formulation): 105 % of control
T/C (endpoint: median survival time, dose: 133.0 mg/kg/injection, schedule: Q01DX009 (ip), vehicle: sodium bicarbonate): 163 % of control
T/C (endpoint: median survival time, dose: 180.0 mg/kg/injection, schedule: Q01DX005 (ip), vehicle: saline): 170 % of control
T/C (endpoint: median survival time, dose: 200.0 mg/kg/injection, schedule: Q01DX005 (ip), vehicle: distilled water + Tween-80): 196 % of control
T/C (endpoint: median survival time, dose: 300.0 mg/kg/injection, schedule: Q01DX005 (ip), vehicle: saline): 238 % of control

COC1(c2ccccc2)c2ccccc2C(OC)(c2ccccc2)c2cc(Cl)ccc21 (configuration not stated)
T/C (endpoint: mean survival time, dose: 100.0 mg/kg/injection, schedule: Q01DX001 (ip), vehicle: Klucel (hydroxypropylcellulose) (HPC)): 96 % of control
T/C (endpoint: mean survival time, dose: 200.0 mg/kg/injection, schedule: Q01DX001 (ip), vehicle: Klucel (hydroxypropylcellulose) (HPC)): 89 % of control

CC(=O)Nc1ccc2oc(=O)ccc2c1
T/C [1]: 101 % of control
T/C [2]: 101 % of control
T/C [3]: 101 % of control

CN(Cc1cnc2nc(N)nc(N)c2n1)c1ccc(C(=O)NC(CCC(N)=O)C(=O)O)cc1 (configuration not stated)
T/C (endpoint: mean survival time, dose: 1.0 mg/kg/injection, schedule: Q01DX009 (ip), vehicle: sodium bicarbonate): 102 % of control
T/C (endpoint: mean survival time, dose: 10.0 mg/kg/injection, schedule: Q01DX009 (ip), vehicle: sodium bicarbonate): 118 % of control
T/C (endpoint: mean survival time, dose: 50.0 mg/kg/injection, schedule: Q01DX009 (ip), vehicle: sodium bicarbonate): 150 % of control
T/C (endpoint: mean survival time, dose: 180.0 mg/kg/injection, schedule: Q04DX003 (ip), vehicle: sodium bicarbonate): 158 % of control
T/C (endpoint: mean survival time, dose: 268.0 mg/kg/injection, schedule: Q04DX003 (ip), vehicle: sodium bicarbonate): 114 % of control
T/C (endpoint: mean survival time, dose: 400.0 mg/kg/injection, schedule: Q04DX003 (ip), vehicle: sodium bicarbonate): 110 % of control

Cc1nc(-c2ccccc2)c(Cc2c(O)ccc3ccccc23)c(=O)[nH]1
T/C (endpoint: mean survival time, dose: 100.0 mg/kg/injection, schedule: Q01DX001 (ip), vehicle: saline): 97 % of control
T/C (endpoint: mean survival time, dose: 200.0 mg/kg/injection, schedule: Q01DX001 (ip), vehicle: saline): 100 % of control
T/C (endpoint: mean survival time, dose: 400.0 mg/kg/injection, schedule: Q01DX001 (ip), vehicle: saline): 100 % of control

O=C(O)c1nccc2c([N+](=O)[O-])cccc12
T/C (endpoint: mean survival time, dose: 100.0 mg/kg/injection, schedule: Q01DX009 (ip), vehicle: acetone): 95 % of control
T/C (endpoint: mean survival time, dose: 200.0 mg/kg/injection, schedule: Q01DX009 (ip), vehicle: acetone): 95 % of control
T/C (endpoint: mean survival time, dose: 400.0 mg/kg/injection, schedule: Q01DX009 (ip), vehicle: acetone): 98 % of control

CCOC(=O)c1ccc(OC(=O)Nc2cc(C)ccc2C)cc1
T/C [4]: 100 % of control
T/C [5]: 103 % of control
T/C [6]: 98 % of control and 101 % of control
T/C [1]: 97 % of control
T/C [7]: 100 % of control
T/C [8]: 113 % of control and 109 % of control
T/C [2]: 92 % of control
T/C [9]: 102 % of control
T/C [10]: 114 % of control and 102 % of control
T/C [3]: 94 % of control

Cc1nc2scc(C)c2c(=S)[nH]1
T/C [5]: 96 % of control
T/C [7]: 97 % of control
T/C [9]: 88 % of control

O=[N+]([O-])c1ccc(OCc2ccccc2)cc1
T/C [11]: 98 % of control
T/C [12]: 98 % of control
T/C (endpoint: mean survival time, dose: 400.0 mg/kg/injection, schedule: Q01DX009 (ip), vehicle: saline with Tween-80): 98 % of control

Nc1ccc(OCc2nc(N)nc(N)c2-c2cccc(Cl)c2)cc1
T/C (endpoint: mean survival time, dose: 100.0 mg/kg/injection, schedule: Q01DX001 (ip), vehicle: saline + alcohol): 103 % of control
T/C (endpoint: mean survival time, dose: 200.0 mg/kg/injection, schedule: Q01DX001 (ip), vehicle: saline + alcohol): 101 % of control
T/C (endpoint: mean survival time, dose: 400.0 mg/kg/injection, schedule: Q01DX001 (ip), vehicle: saline + alcohol): 106 % of control

O=[N+]([O-])c1ccc2c(c1[N+](=O)[O-])CCCC2
T/C [5]: 104 % of control
T/C [7]: 107 % of control
T/C [9]: 93 % of control

CC(=O)Nc1ccc(C(=O)C=O)cc1
T/C (endpoint: mean survival time, dose: 6.25 mg/kg/injection, schedule: Q01DX009 (ip), vehicle: saline with Tween-80): 103 % of control
T/C (endpoint: mean survival time, dose: 12.5 mg/kg/injection, schedule: Q01DX009 (ip), vehicle: saline with Tween-80): 110 % of control
T/C (endpoint: mean survival time, dose: 25.0 mg/kg/injection, schedule: Q01DX009 (ip), vehicle: saline with Tween-80): 107 % of control
T/C [4]: 113 % of control
T/C [11]: 110 % of control
T/C [12]: 103 % of control

NC(C(=O)O)=C(c1ccccc1)c1ccccc1
T/C [6]: 98 % of control
T/C [8]: 102 % of control
T/C [10]: 102 % of control

N#CSCN1C(=O)C2CC=CCC2C1=O (configuration not stated)
T/C (endpoint: mean survival time, dose: 6.25 mg/kg/injection, schedule: Q04DX003 (ip), vehicle: saline with Tween-80): 103 % of control
T/C (endpoint: mean survival time, dose: 12.5 mg/kg/injection, schedule: Q04DX003 (ip), vehicle: saline with Tween-80): 101 % of control
